Test results: patent publication US20230391768A2, “IMIDAZOPYRIDINE DERIVATIVES AND AZA-IMIDAZOPYRIDINE DERIVATIVES AS JANUS KINASE 2 INHIBITORS AND USES THEREOF” (Dana-Farber Cancer Institute, Inc., priority 2018, published 2023)

Columns and labels:
Assay in all cases: KINOMEscan
Assay type in all cases: binding
Conditions in all cases: read-out: percent of control
EPHB6 = EPHB6 (Homo sapiens (Human), UniProt O15197)
Description: (§1) In vitro profiling of Compound I-2 (1 μM) was performed using the DiscoveRx KINOMEscan® platform.

DLK = DLK (Homo sapiens (Human), UniProt Q12852)
Description: as §1

[1] = biological target: ABL1(F317L)-nonphosphorylated (Homo sapiens (Human), UniProt P00519, F317L)
Description: as §1

PRKX = PRKX (Homo sapiens (Human), UniProt P51817)
Description: as §1

CDKL5 = CDKL5 (Homo sapiens (Human), UniProt O76039)
Description: as §1

PIP5K2C = PIP5K2C (Homo sapiens (Human), UniProt Q8TBX8)
Sequence of PIP5K2C (Q8TBX8 whole entry): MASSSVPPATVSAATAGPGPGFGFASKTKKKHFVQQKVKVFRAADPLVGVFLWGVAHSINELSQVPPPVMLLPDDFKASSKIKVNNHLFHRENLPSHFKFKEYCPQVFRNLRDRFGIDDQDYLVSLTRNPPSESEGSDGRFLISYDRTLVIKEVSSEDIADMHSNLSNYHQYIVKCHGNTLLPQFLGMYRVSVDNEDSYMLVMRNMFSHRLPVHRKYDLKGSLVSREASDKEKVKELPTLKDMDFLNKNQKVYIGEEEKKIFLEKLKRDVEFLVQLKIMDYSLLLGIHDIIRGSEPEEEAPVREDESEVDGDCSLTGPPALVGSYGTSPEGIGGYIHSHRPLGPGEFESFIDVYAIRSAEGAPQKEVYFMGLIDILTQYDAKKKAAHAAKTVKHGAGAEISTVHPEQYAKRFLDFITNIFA
Description: as §1

TGFBR1 = TGFBR1 (Homo sapiens (Human), UniProt P36897)
Description: as §1

NEK4 = NEK4 (Homo sapiens (Human), UniProt P51957)
Description: as §1

YANK2 = YANK2 (Homo sapiens (Human), UniProt Q9NY57)
Description: as §1

KIT = KIT (Homo sapiens (Human), UniProt P10721)
Description: as §1

MLK3 = MLK3 (Homo sapiens (Human), UniProt Q16584)
Description: as §1

MYO3A = MYO3A (Homo sapiens (Human), UniProt Q8NEV4)
Description: as §1

RET (V804L) = RET (V804L) (Homo sapiens (Human), UniProt P07949, V804L)
Description: as §1

TSSK1B = TSSK1B (Homo sapiens (Human), UniProt Q9BXA7)
Sequence of TSSK1B (Q9BXA7 whole entry): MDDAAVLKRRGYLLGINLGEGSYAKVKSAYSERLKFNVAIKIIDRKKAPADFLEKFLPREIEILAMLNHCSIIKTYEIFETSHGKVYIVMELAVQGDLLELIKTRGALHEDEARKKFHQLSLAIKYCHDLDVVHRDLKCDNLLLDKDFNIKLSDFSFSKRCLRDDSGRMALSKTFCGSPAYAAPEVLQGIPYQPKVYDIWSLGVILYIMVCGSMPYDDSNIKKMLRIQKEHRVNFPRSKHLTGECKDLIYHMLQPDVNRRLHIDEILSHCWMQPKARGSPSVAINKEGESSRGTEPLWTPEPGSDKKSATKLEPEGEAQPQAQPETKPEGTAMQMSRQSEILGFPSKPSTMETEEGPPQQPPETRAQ
Description: as §1

SGK3 = SGK3 (Homo sapiens (Human), UniProt Q96BR1)
Description: as §1

[2] = biological target: ABL1(H396P)-nonphosphorylated (Homo sapiens (Human), UniProt P00519, H396P)
Description: as §1

YSK1 = YSK1 (Homo sapiens (Human), UniProt O00506)
Sequence of YSK1 (O00506 whole entry): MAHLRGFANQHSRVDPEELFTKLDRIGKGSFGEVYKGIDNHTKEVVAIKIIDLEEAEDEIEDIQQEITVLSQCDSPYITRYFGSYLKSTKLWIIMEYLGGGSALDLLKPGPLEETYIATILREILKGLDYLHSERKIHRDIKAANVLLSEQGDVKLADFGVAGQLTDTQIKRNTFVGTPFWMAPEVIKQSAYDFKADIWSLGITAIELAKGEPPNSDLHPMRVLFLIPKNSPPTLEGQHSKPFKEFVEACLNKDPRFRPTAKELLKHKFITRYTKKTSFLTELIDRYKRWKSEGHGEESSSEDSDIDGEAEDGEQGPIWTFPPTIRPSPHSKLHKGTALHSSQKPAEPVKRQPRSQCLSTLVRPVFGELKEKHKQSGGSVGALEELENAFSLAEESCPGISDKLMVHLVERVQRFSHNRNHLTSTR
Description: as §1

CASK = CASK (Homo sapiens (Human), UniProt O14936)
Description: as §1

MYLK = MYLK (Homo sapiens (Human), UniProt Q15746)
Sequence of MYLK (Q15746 whole entry): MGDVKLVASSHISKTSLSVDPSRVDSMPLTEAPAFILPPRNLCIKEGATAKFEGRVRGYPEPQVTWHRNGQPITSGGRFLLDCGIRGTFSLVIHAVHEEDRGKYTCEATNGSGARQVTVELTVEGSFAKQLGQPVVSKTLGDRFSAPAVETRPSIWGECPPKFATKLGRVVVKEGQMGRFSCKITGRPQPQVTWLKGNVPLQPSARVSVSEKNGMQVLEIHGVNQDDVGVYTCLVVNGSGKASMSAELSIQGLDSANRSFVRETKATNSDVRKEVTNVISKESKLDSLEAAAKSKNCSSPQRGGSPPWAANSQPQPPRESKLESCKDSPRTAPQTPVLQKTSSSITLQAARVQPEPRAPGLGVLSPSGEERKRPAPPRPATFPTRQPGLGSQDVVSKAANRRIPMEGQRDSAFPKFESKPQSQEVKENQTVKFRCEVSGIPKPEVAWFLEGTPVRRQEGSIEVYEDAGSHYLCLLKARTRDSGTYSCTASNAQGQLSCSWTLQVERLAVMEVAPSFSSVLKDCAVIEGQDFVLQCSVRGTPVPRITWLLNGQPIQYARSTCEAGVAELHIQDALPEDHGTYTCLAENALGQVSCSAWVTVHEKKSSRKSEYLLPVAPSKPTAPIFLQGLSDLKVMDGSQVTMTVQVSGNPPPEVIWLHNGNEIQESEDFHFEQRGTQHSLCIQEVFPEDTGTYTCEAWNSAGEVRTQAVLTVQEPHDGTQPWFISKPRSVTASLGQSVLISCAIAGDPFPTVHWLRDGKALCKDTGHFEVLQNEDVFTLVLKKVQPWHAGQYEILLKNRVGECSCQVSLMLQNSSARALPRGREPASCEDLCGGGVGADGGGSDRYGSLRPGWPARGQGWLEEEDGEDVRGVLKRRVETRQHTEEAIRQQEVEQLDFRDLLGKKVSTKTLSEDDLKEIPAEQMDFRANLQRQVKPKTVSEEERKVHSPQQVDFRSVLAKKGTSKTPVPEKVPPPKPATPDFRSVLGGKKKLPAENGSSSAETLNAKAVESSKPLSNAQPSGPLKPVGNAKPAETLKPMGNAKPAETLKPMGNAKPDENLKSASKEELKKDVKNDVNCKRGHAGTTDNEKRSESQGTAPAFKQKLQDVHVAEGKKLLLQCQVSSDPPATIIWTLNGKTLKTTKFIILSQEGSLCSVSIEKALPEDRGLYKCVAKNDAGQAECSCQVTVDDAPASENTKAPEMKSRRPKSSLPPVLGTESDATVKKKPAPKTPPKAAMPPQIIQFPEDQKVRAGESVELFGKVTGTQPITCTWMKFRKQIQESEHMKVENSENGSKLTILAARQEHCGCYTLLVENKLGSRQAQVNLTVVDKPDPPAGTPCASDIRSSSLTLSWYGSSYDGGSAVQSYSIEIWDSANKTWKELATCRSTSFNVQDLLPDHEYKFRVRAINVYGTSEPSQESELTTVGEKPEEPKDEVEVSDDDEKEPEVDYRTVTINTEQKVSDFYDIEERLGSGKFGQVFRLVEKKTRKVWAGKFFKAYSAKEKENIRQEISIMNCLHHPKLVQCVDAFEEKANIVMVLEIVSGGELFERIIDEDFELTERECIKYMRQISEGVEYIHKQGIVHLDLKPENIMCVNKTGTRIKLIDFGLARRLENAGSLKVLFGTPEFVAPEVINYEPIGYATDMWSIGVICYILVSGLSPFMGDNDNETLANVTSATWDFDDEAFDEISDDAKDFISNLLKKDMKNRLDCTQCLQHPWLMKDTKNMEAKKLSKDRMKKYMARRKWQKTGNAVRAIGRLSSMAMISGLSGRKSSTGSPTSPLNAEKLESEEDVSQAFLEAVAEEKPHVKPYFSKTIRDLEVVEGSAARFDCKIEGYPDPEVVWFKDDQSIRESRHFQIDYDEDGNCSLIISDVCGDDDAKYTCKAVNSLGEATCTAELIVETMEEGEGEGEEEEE
Description: as §1

FLT3 (D835V) = FLT3 (D835V) (Homo sapiens (Human), UniProt P36888, D835V)
Description: as §1

SRPK2 = SRPK2 (Homo sapiens (Human), UniProt P78362)
Sequence of SRPK2 (P78362 whole entry): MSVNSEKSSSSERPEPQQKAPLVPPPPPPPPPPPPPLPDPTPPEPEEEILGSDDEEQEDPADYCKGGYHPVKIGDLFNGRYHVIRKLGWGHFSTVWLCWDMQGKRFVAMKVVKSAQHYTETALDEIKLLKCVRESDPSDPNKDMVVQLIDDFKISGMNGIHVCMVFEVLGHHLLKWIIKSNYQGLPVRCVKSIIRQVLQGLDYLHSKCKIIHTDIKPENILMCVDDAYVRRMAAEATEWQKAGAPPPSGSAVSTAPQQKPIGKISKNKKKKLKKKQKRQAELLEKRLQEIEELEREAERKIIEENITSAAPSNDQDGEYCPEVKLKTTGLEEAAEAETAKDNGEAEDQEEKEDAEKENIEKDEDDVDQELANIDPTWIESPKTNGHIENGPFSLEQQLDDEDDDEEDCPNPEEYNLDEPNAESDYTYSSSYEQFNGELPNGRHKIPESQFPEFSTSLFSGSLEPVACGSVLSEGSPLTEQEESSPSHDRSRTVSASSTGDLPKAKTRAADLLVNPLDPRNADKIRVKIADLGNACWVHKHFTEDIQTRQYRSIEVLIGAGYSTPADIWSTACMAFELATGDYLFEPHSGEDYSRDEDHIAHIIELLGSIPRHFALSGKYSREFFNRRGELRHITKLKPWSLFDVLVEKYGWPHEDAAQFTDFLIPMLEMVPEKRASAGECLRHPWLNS
Description: as §1

NEK1 = NEK1 (Homo sapiens (Human), UniProt Q96PY6)
Description: as §1

PRKD2 = PRKD2 (Homo sapiens (Human), UniProt Q9BZL6)
Description: as §1

WEE1 = WEE1 (Homo sapiens (Human), UniProt P30291)
Description: as §1

AMPK-alpha2 = AMPK-alpha2 (Homo sapiens (Human), UniProt P54646)
Description: as §1

MLK1 = MLK1 (Homo sapiens (Human), UniProt P80192)
Description: as §1

TTK = TTK (Homo sapiens (Human), UniProt P33981)
Description: as §1

DAPK1 = DAPK1 (Homo sapiens (Human), UniProt P53355)
Description: as §1

CDK8 = CDK8 (Homo sapiens (Human), UniProt P49336)
Sequence of CDK8 (P49336 whole entry): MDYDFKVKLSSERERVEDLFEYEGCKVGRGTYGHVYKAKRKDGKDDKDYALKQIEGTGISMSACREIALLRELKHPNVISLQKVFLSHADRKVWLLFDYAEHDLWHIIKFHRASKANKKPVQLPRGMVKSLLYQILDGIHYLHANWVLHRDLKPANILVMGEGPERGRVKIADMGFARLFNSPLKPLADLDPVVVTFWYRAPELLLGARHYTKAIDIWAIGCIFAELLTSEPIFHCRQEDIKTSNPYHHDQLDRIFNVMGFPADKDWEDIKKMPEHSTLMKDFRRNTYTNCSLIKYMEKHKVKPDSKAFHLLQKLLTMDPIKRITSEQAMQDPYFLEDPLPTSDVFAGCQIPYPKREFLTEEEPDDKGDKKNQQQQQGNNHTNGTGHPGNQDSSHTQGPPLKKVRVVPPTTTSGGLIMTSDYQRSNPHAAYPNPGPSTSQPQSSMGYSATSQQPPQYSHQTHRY
Description: as §1

EGFR(G719S) = EGFR(G719S) (Homo sapiens (Human), UniProt P00533, G719S)
Description: as §1

ADCK3 = ADCK3 (Homo sapiens (Human), UniProt Q8NI60)
Description: as §1

ABL1-nonphosphorylated = ABL1-nonphosphorylated (Homo sapiens (Human), UniProt P00519)
Description: as §1

AURKA = AURKA (Homo sapiens (Human), UniProt O14965)
Description: as §1

ARK5 = ARK5 (Homo sapiens (Human), UniProt O60285)
Description: as §1

MKNK2 = MKNK2 (Homo sapiens (Human), UniProt Q9HBH9)
Sequence of MKNK2 (Q9HBH9 whole entry): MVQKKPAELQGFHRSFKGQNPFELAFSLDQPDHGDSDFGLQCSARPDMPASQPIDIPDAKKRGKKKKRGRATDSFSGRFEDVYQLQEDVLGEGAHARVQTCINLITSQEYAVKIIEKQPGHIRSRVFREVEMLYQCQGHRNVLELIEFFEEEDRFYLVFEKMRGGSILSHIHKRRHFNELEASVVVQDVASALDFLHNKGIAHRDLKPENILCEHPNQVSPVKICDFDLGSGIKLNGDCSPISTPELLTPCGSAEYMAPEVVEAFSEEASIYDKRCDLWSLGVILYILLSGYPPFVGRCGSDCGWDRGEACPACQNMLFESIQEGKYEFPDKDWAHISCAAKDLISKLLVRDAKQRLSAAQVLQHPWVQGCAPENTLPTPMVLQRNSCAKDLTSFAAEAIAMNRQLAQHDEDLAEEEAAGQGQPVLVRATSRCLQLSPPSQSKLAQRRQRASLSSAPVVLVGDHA
Description: as §1

ERN1 = ERN1 (Homo sapiens (Human), UniProt O75460)
Description: as §1

MLK2 = MLK2 (Homo sapiens (Human), UniProt Q02779)
Description: as §1

PIP5K1A = PIP5K1A (Homo sapiens (Human), UniProt Q99755)
Description: as §1

KIT-autoinhibited = KIT-autoinhibited (Homo sapiens (Human), UniProt P10721)
Description: as §1

| Compound | remaining binding at 1 µM (EPHB6) [%] | remaining binding at 1 µM (DLK) [%] | remaining binding at 1 µM [1] [%] | remaining binding at 1 µM (PRKX) [%] | remaining binding at 1 µM (CDKL5) [%] | remaining binding at 1 µM (PIP5K2C) [%] | remaining binding at 1 µM (TGFBR1) [%] | remaining binding at 1 µM (NEK4) [%] | remaining binding at 1 µM (YANK2) [%] | remaining binding at 1 µM (KIT) [%] | remaining binding at 1 µM (MLK3) [%] | remaining binding at 1 µM (MYO3A) [%] | remaining binding at 1 µM (RET (V804L)) [%] | remaining binding at 1 µM (TSSK1B) [%] | remaining binding at 1 µM (SGK3) [%] | remaining binding at 1 µM [2] [%] | remaining binding at 1 µM (YSK1) [%] | remaining binding at 1 µM (CASK) [%] | remaining binding at 1 µM (MYLK) [%] | remaining binding at 1 µM (FLT3 (D835V)) [%] | other results |
| --- | --- | --- | --- | --- | --- | --- | --- | --- | --- | --- | --- | --- | --- | --- | --- | --- | --- | --- | --- | --- | --- |
| CCN1CCN(Cc2cc(NC(=O)c3ccc(C)c(-c4ccc5nc(NC(=O)C6CC6)cn5n4)c3)cc(C(F)(F)F)c2)CC1 [Compound I-2, 3-(2-(cyclopropanecarboxamido)imidazo[1,2-b]pyridazin-6-yl)-N-(3-((4-ethylpiperazin-1-yl)methyl)-5-(trifluoromethyl)phenyl)-4-methylbenzamide] | 78 | 15 | 0 | 100 | 95 | 5.7 | 94 | 28 | 91 | 0 | 76 | 85 | 0.15 | 96 | 100 | 0 | 61 | 86 | 65 | 5.3 | remaining binding at 1 µM (SRPK2): 73%; remaining binding at 1 µM (NEK1): 95%; remaining binding at 1 µM (PRKD2): 97%; remaining binding at 1 µM (WEE1): 94%; remaining binding at 1 µM (AMPK-alpha2): 99%; remaining binding at 1 µM (MLK1): 75%; remaining binding at 1 µM (TTK): 83%; remaining binding at 1 µM (DAPK1): 100%; remaining binding at 1 µM (CDK8): 4.8%; remaining binding at 1 µM (EGFR(G719S)): 45%; remaining binding at 1 µM (ADCK3): 97%; remaining binding at 1 µM (ABL1-nonphosphorylated): 0%; remaining binding at 1 µM (AURKA): 64%; remaining binding at 1 µM (ARK5): 94%; remaining binding at 1 µM (MKNK2): 87%; remaining binding at 1 µM (ERN1): 84%; remaining binding at 1 µM (MLK2): 72%; remaining binding at 1 µM (PIP5K1A): 100%; remaining binding at 1 µM (KIT-autoinhibited): 79% |
| CCN1CCN(Cc2cc(NC(=O)c3ccc(C)c(-c4ccc5nc(NC(=O)C6CC6)cn5c4)c3)cc(C(F)(F)F)c2)CC1 [Compound I-6, 3-(2-(cyclopropanecarboxamido)imidazo[1,2-a]pyridin-6-yl)-N-(3-((4-ethylpiperazin-1-yl)methyl)-5-(trifluoromethyl)phenyl)-4-methylbenzamide] | 64 | 26 | 0 | 100 | 100 | 46 | 100 | 15 | 100 | 0 | 82 | 66 | 0 | 76 | 100 | 0 | 100 | 85 | 79 | 7.7 | remaining binding at 1 µM (SRPK2): 100%; remaining binding at 1 µM (NEK1): 97%; remaining binding at 1 µM (PRKD2): 100%; remaining binding at 1 µM (WEE1): 100%; remaining binding at 1 µM (AMPK-alpha2): 99%; remaining binding at 1 µM (MLK1): 94%; remaining binding at 1 µM (TTK): 83%; remaining binding at 1 µM (DAPK1): 100%; remaining binding at 1 µM (CDK8): 3%; remaining binding at 1 µM (EGFR(G719S)): 35%; remaining binding at 1 µM (ADCK3): 96%; remaining binding at 1 µM (ABL1-nonphosphorylated): 0.1%; remaining binding at 1 µM (AURKA): 94%; remaining binding at 1 µM (ARK5): 100%; remaining binding at 1 µM (MKNK2): 82%; remaining binding at 1 µM (ERN1): 78%; remaining binding at 1 µM (MLK2): 62%; remaining binding at 1 µM (PIP5K1A): 100%; remaining binding at 1 µM (KIT-autoinhibited): 85% |
